Legend:
MV4-11 cells [1] = experiment: Subcutaneous MV4-11 xenograft model of AML in SCID mice, tumor growth; assay type: in vivo; settings: for maximum suppression of tumor growth (STG %): 6 days per week; for effect on tumor growth: SCID mice inoculated SC with MV4-11 cells (FIGS. 1 and 2)
Method: FIG. 1. Example of growth of tumors in MV4-11 xenograft model of AML in SCID mice treated with vehicle control and TT-03197 at 10 mg/kg and 40 mg/kg administered intraperitoneally. Mice were treated 6 days per week as indicated on the figure. Results are Mean±SE (n=14-16).
FIG. 2. Example of growth of tumors in MV4-11 xenograft model of AML in SCID mice treated with vehicle control and TT-03203 at 10 mg/kg and 25 mg/kg administered orally. Mice were treated 6 days per weeks as indicated on the figure. Results are Mean±SE (n=17-20)
(§1) Efficacy of compounds was tested in two types of xenograft models of leukemia: subcutaneous (SC) (development of tumors after SC inoculation of cells) and systemic and disseminated (development of tumors on different organs after intravenous inoculation of cells). MV4-11 cells (ATCC CRL-9591) of acute myelomonocytic leukemia (AML) were used.
The maximum suppression of tumor growth (calculated using formula: STG %=(volume control-volume treated)/volume control*100) was 28% for mice treated with 10 mg/kg of TT-03197 and 55% for mice treated with 40 mg/kg of […] (FIG. 1). For TT-03203 the maximum STG was 27% for mice treated PO with 10 mg/kg of TT-03203 and 46% for mice treated with 25 mg/kg of TT-03203 (FIG. 2).

U-937 = experiment: Cytotoxicity towards U-937 cell line; assay type: cell-based; settings: Homo sapiens
Method: (§2) In various embodiments, the compounds of the disclosure are those in which show IC50 values in cytotoxicity experiments towards cells lines MV4-11 and U937 of >20 μM, 10-20 μM, 5-10 μM, 1-5 μM, or <1 μM.
(§3) The IC50 is divided into 5 categories: A<1 μM, B 1-5 μM, C 5-10 μM, D 10-20 μM, and E>20 μM.

MV4-11 = experiment: Cytotoxicity towards MV4-11 cell line; assay type: cell-based; settings: Homo sapiens
Method: as §2, §3

MV4-11 cells [2] = experiment: Systemic (disseminated) MV4-11 model of AML in SCID mice, survival; assay type: in vivo; settings: 6 days per week, days 4-58, IV MV4-11 (FIG. 3)
Method: FIG. 3. Example of survival of SCID mice inoculated via IV route with MV4-11 cells and treated via oral gavage with vehicle control, TT-01901 at 100 mg/kg and TT-03586 at 50 mg/kg 6 days per week on days 4-58. Mice were sacrificed according to IACUC regulations after losing more than 20% of body weight or becoming moribund and paralyzed.
as §1
In this model leukemia cells either from patient of from cell lines are administered intravenously into mice and leukemia cells are engrafted into blood and blood-forming organs (bone marrow, thymus, spleen).
In systemic model of AML SCID mice were irradiated with 3 Gy and inoculated intravenously with MV4-11 cells 24 h after irradiation. Mice were treated with vehicle control, TT-01901 and TT-03586 during days 4-58 (FIG. 3). 30 days after cells implantation mice treated with vehicle were gradually becoming sick, scruffy and were losing weight. […] The ratio of survival of treated mice versus survival of control mice in percent (T/C) was calculated using formula: T/C %=average survival time for treated mice/average survival time for control mice*100. Increase in the survival (IS) was calculated using formula: IS=(average survival time of treated mice−average survival time of control mice)/average survival time of control mice*100. […] The corresponding increase in survival was 35% and 48%.

Compound	IC50 (U-937)	IC50 (MV4-11)	other results
O=C(NCCCc1cn[nH]c1)c1ccc(-n2cccn2)c(C#Cc2ccc(Cl)cc2)c1 [TT-03203]	< 1000 nM	< 1000 nM	maximum suppression of tumor growth (STG %) (MV4-11 cells [1]; 10 mg/kg PO, SC MV4-11 xenograft (FIG. 2)): 27%; maximum suppression of tumor growth (STG %) (MV4-11 cells [1]; 25 mg/kg PO, SC MV4-11 xenograft (FIG. 2)): 46%; maximum suppression of tumor growth (STG %) (MV4-11 cells [1]; 40 mg/kg, intraperitoneally, SC MV4-11 xenograft (FIG. 1)): 55%; effect on tumor growth (MV4-11 cells [1]): dose-dependent reduction of tumor growth
O=C(NCCCc1cn[nH]c1)c1ccc(N2CCOCC2)c(C#Cc2ccc(F)cc2)c1 [TT-03586]	< 1000 nM	< 1000 nM	increase in survival (IS) (MV4-11 cells [2]; 50 mg/kg oral gavage): 48%; survival of treated mice versus control mice (T/C %) (MV4-11 cells [2]; 50 mg/kg oral gavage): 148%
O=C(NCCCn1ccnc1)c1ccc(-n2cccn2)c(C#Cc2ccccc2)c1 [TT-01901]	< 1000 nM	< 1000 nM	increase in survival (IS) (MV4-11 cells [2]; 100 mg/kg oral gavage): 35%; survival of treated mice versus control mice (T/C %) (MV4-11 cells [2]; 100 mg/kg oral gavage): 135%
O=C(NCCCc1cn[nH]c1)c1ccc(N2CCC(O)CC2)c(C#Cc2ccc(F)cc2)c1 [TT-03587]	< 1000 nM	< 1000 nM	–
O=C(NCCCc1cn[nH]c1)c1ccc(-n2cccn2)c(C#Cc2ccccc2Cl)c1 [TT-03321]	< 1000 nM	< 1000 nM	–
COc1cccc(C#Cc2cc(C(=O)NCCCn3ccnc3)ccc2-n2cccn2)c1 [TT-03309]	< 1000 nM	< 1000 nM	–
O=C(NCCCn1ccnc1)c1ccc(-n2cnnc2)c(C#Cc2ccccc2)c1 [TT-02731]	< 1000 nM	< 1000 nM	–
O=C(NCCCn1cccn1)c1ccc(-n2cccn2)c(C#Cc2ccccc2)c1 [TT-02709]	< 1000 nM	> 20000 nM	–
O=C(NCCCc1cn[nH]c1)c1ccc(N2CCCC(CO)C2)c(C#Cc2ccc(F)cc2)c1 (stereo not shown) [TT-03595]	< 1000 nM	< 1000 nM	–
O=C(NCCCc1cn[nH]c1)c1ccc(-n2cccn2)c(C#Cc2cccc(N3CCCC3)n2)c1 [TT-03611]	< 1000 nM	< 1000 nM	–
O=C(NCCCc1cn[nH]c1)c1ccc(-n2cccn2)c(C#Cc2ccc3nccn3c2)c1 [TT-03620]	< 1000 nM	< 1000 nM	–
CN(C)CC1(O)CCN(c2ccc(C(=O)NCCCc3cn[nH]c3)cc2C#Cc2ccc(F)cc2)C1 (stereo not shown) [TT-03594]	< 1000 nM	< 1000 nM	–
Cc1nccn1-c1ccc(C(=O)NCCCc2cn[nH]c2)cc1C#Cc1ccc(F)cc1 [TT-03602]	< 1000 nM	< 1000 nM	–
CN(C)c1cccc(C#Cc2cc(C(=O)NCCCc3cn[nH]c3)ccc2-n2cccn2)n1 [TT-03623]	< 1000 nM	< 1000 nM	–
O=C(NCCCc1cn[nH]c1)c1ccc(N2CCOCC2)c(C#Cc2ccc(F)cn2)c1 [TT-03633]	< 1000 nM	< 1000 nM	–
Cc1n[nH]c(SCCNC(=O)c2ccc(-n3cccn3)c(C#Cc3cccnc3)c2)n1 [TT-02940]	10000 to 20000 nM	> 20000 nM	–
Cc1nncn1-c1ccc(C(=O)NCCCn2ccnc2)cc1C#Cc1ccccc1 [TT-02732]	< 1000 nM	< 1000 nM	–
C[C@@H]1CN(c2ccc(C(=O)N[C@@H]3CC[C@@H](n4ccnc4)[C@@H]3O)cc2C#Cc2ccc(F)cc2)C[C@H](C)O1 [TT-03733]	1000 to 5000 nM	< 1000 nM	–
Cn1cc(-c2ccc(C(=O)NCCCc3cn[nH]c3)cc2C#Cc2ccc(F)cc2)cn1 [TT-03585]	< 1000 nM	< 1000 nM	–
Cc1noc(CNC(=O)c2ccc(-n3cccn3)c(C#Cc3ccccc3)c2)n1 [TT-02802]	1000 to 5000 nM	> 20000 nM	–
Cn1cc(CCCNC(=O)c2ccc(-n3cccn3)c(C#Cc3ccc(F)cc3)c2)cn1 [TT-03630]	< 1000 nM	< 1000 nM	–
O=C(NCCCN1CCOCC1)c1ccc(-n2cccn2)c(C#Cc2cccnc2)c1 [TT-02936]	> 20000 nM	> 20000 nM	–
C[C@@H]1CN(c2ncc(C(=O)NC/C=C/c3cn[nH]c3)cc2C#Cc2ccc(F)cc2)C[C@H](C)O1 [TT-03751]	< 1000 nM	< 1000 nM	–

Compound	IC50 (U-937)	IC50 (MV4-11)	other results
O=C(NCCCc1cn[nH]c1)c1ccc(-n2cccn2)c(C#Cc2ccccc2C(F)(F)F)c1 [TT-03323]	< 1000 nM	< 1000 nM	–
O=C(NCCCc1cn[nH]c1)c1ccc(-n2cccn2)c(C#Cc2cccc(Cl)c2)c1 [TT-03322]	< 1000 nM	< 1000 nM	–
CC(C)(C)NC(=O)c1ccc(-n2cccn2)c(C#Cc2ccccn2)c1 [TT-02946]	5000 to 10000 nM	> 20000 nM	–
O=C(NCCc1nccs1)c1ccc(-n2cccn2)c(C#Cc2ccccc2)c1 [TT-02707]	< 1000 nM	> 20000 nM	–
Cc1ccccc1C#Cc1cc(C(=O)NCCCc2cn[nH]c2)ccc1-n1cccn1 [TT-03326]	< 1000 nM	< 1000 nM	–
O=C(NCCCn1ccnc1)c1ccc(-n2cccn2)c(C#Cc2ccc(F)cc2)c1 [TT-02746]	< 1000 nM	< 1000 nM	–
O=C(NCCCc1cn[nH]c1)c1ccc(N2CCC(C(F)(F)F)CC2)c(C#Cc2ccc(F)cc2)c1 [TT-03591]	< 1000 nM	< 1000 nM	–
O=C(NCCCc1cn[nH]c1)c1ccc(-n2ccnc2)c(C#Cc2ccc(F)cc2)c1 [TT-03627]	< 1000 nM	< 1000 nM	–
O=C(NCCCc1cn[nH]c1)c1ccc(-n2cccn2)c(C#Cc2ccc(F)cc2)c1 [TT-03197]	< 1000 nM	< 1000 nM	maximum suppression of tumor growth (STG %) (MV4-11 cells [1]; 10 mg/kg, intraperitoneally, SC MV4-11 xenograft (FIG. 1)): 28%; effect on tumor growth (MV4-11 cells [1]): dose-dependent reduction of tumor growth
C[C@@H]1CN(c2ncc(C(=O)NCCCc3cn[nH]c3)cc2C#Cc2ccc(Cl)cc2)C[C@H](C)O1 [TT-03753]	< 1000 nM	< 1000 nM	–
Cc1ccnn1CCNC(=O)c1ccc(-n2cccn2)c(C#Cc2cccnc2)c1 [TT-02945]	> 20000 nM	> 20000 nM	–
Nc1cccc(C#Cc2cc(C(=O)NCCCc3cn[nH]c3)ccc2-n2cccn2)n1 [TT-03354]	< 1000 nM	< 1000 nM	–
O=C(NCCCc1cn[nH]c1)c1ccc(-n2cccn2)c(C#Cc2ccc(C(F)(F)F)cc2)c1 [TT-03324]	1000 to 5000 nM	1000 to 5000 nM	–
C[C@@H]1CN(c2ccc(C(=O)NCCCc3cn[nH]c3)cc2C#Cc2ccc(F)cc2)C[C@H](C)O1 [TT-03670]	< 1000 nM	< 1000 nM	–
COc1ccc(C#Cc2cc(C(=O)NCCCc3cn[nH]c3)ccc2-n2cccn2)cc1 [TT-03306]	< 1000 nM	< 1000 nM	–
CC(C)(C)OC(=O)NCc1ccc(C#Cc2cc(C(=O)NCCCc3cn[nH]c3)ccc2-n2cccn2)cc1 [TT-03364]	1000 to 5000 nM	1000 to 5000 nM	–
O=C(NCCCc1cn[nH]c1)c1ccc(-n2cnnc2)c(C#Cc2ccc(F)cc2)c1 [TT-03634]	< 1000 nM	< 1000 nM	–
Cc1ccn(CCNC(=O)c2ccc(-n3cccn3)c(C#Cc3ccccc3)c2)n1 [TT-02692]	< 1000 nM	> 20000 nM	–
C[C@@H]1CN(c2ccc(C(=O)N3CC[C@H](O)[C@@H](n4ccnc4)CC3)cc2C#Cc2ccc(F)cc2)C[C@H](C)O1 [TT-03732]	1000 to 5000 nM	< 1000 nM	–
O=C(NCCCc1ccccn1)c1ccc(-n2cccn2)c(C#Cc2cccnc2)c1 [TT-02941]	5000 to 10000 nM	10000 to 20000 nM	–
O=C(NCCCn1ccnc1)c1cccc(Br)c1 [TT-03073]	> 20000 nM	> 20000 nM	–
O=C1CN(c2ccc(C(=O)NCCCc3cn[nH]c3)cc2C#Cc2ccc(F)cc2)CCN1 [TT-03671]	< 1000 nM	< 1000 nM	–

Source: patent publication US10538520B2, “Benzamide and nicotinamide compounds and methods of using same” (OncoTartis Inc., priority 2013, dated 2020)
